Source: patent publication US12435061B2 (priority 2020, dated 2025)
Where two headings read alike, the source gives them in different places.

Columns and labels:
[1] = rat, in vivo
Excerpt: The rats per group for either skin or CSF sample collection contains 9 rats.
Animals were allocated randomly into the following treatment groups.
Group 1: Control—2 untreated, naïve animals for the collection of blood, skin, and CSF at the point of euthanasia.
The same 3 rats were allocated to each alternating time point of bleeding.
Samples of plasma, skin and CSF were sent to Swiss BioQuant AG, Reinach, Switzerland for further analysis.
The extravascular model was used for oral dosing. Sparse sampling option was used for plasma concentration.
The following pharmacokinetic parameters were estimated from the plasma, skin and CSF concentration versus time curve:
tmax Time to reach the maximum plasma concentration read directly from the individual plasma concentration-time curve.
Cmax Maximum plasma concentration read directly from the individual plasma concentration-time curve.
Cmax/doseCmax corrected for dose.
AUC0-t Area under the plasma concentration-time curve from time point zero to last measurable concentration. AUC0-t was calculated according to the “linear up log down” trapezoidal rule.
AUC0-8 h Area under the plasma concentration-time curve from time point zero to time point 8 h after dosing. AUC0-8 h was calculated according to the “linear up log down” trapezoidal rule.
AUC0-8 h/dose AUC0-8 h corrected for dose

[2] = minipig, in vivo
Experimental: To assess PK profile of escalating doses of KM-023 administered via PO and IV routes. Animal care was carried out as described above. Animals were observed daily throughout the study period.
PK samples were obtained in the following time points:
On Day 0 and Day 1—time 0, 5 min post injection, 30 min post injection, 1 h post injection, 2 h post injection, 6 h post injection, 24 h post injection (on the following day)
On Day 2, 5 min post injection, 30 min post injection, 1 h post injection, 2 h post injection, 6 h post injection
Plasma samples for PK analysis have been send to Swiss BioQuant AG, Switzerland for further processing.
Methodology used for the detection of KM-023 in minipigs plasma is described in above. In both animals dosed with test item, exposure to KM-023 was detected.

[3] = tested on: SLIGRL-NH2 (PAR2 agonist peptide) induced itching in mice; test: Efficacy of oral KM-023 in SLIGRL-NH2 itching mouse model; assay type: in vivo; details: for Decrease of number of scratches: 30 min before SLIGRL induction, 30 minutes post induction
Excerpt: The aim of this study is to evaluate the efficacy of anti-itching activity of KM-023 in SLIGRL-NH2 (SEQ ID NO: 1) mouse itching model.
Proteinase-activated receptors (PAR) are a group of G-protein coupled receptors which are activated by cleavage of their terminal sequence by serine proteinases. […] Thus, the administration of the murine PAR2 agonist peptide, SLIGRL-NH2 (SEQ ID NO: 1), is an known and acceptable model to assess anti-pruritic compounds in mice.
32 mice in good health status and corresponding to the specifications details above were included in the in vivo phase.
The animals were weighed before treatment. Induction of itching was performed on animals by intradermal administration of SLIGRL-NH2 (SEQ ID NO: 1) peptide in neck (volume about 20 μL).
Oral route was performed by oral gavage using plastic probe 30 min before induction with SLIGRL-NH2 (SEQ ID NO: 1) peptide.
Animals were placed in plexiglass red walls observation devices (for simultaneous observations of 4 mice). Red walls permitted observations of animals by the operator without the possibility for animals to see the operator. Animals were placed in observation cages before induction for 20 to 30 minutes.
Intradermal injections of SLIGRL (SEQ ID NO: 1) was performed on vigil animals in shaved neck and video recording was initiated immediately after injection for a duration of 30 minutes.
Manual image analysis was performed on recorded movies.
Scratching/itching bouts were counted on 6 time periods of 5 minutes (total of 30 min for each mouse).
The scratches were counted at predefined time intervals of 5 minutes post induction and 30 minutes post induction.

[4] = tested on: SLIGRL-NH2 itching mouse model; test: SLIGRL-NH2 itching mouse model (Example 17); assay type: in vivo; details: pre-treatment with either dose of oral KM-023
[5] = design: species or system mice; details: mouse, in vivo, po
Experimental: At the beginning of the study, 3 mice were weight before compound treatment. Group of 3 mice received an increasing dose of KM-023 every 24 hours 1 mg/kg, 10 mg/kg, 30 mg/kg, 100 mg/kg, 500 mg/kg once daily, in a volume of 0.2 ml, administered orally. The mice were weighed daily before treatment.
At the end of the experiment, the mice were sacrificed with CO2.

[6] = tested on: DS-Nh mice (TRPV3 Gly573Ser gain-of-function mutation); test: Efficacy of KM-001 in DS-Nh mouse model (skin histology, dermatitis scoring); details: topical ointment on cheek, Day 14, KM-001 1% and 0.3%, Tacrolimus 0.1%
Experimental: Mice were identified by left ear punch. […] On Day −30, −23, −20, −14, −9, −2, 0, 3, 7, 10, 14, erythema and edema of the mice face have been scored on the right and left sides according to criteria in table 21 (Dermatitis scoring criteria).
The viability, clinical signs and behavior were monitored daily. Body weight was recorded daily. […] Mice were monitored just and 7 hours after administration. Animals in all groups were sacrificed at Day 14 by exsanguination through abdominal vena cava under isoflurane.
For skin samples, the skin at the inflammation site from both cheeks of the face were collected. For histological analyses, the skin was fixed in 4% paraformaldehyde for 24 hours. After fixation, these specimens were processed to paraffin embedding for H&E staining, MT staining and immunohistochemistry and toluidine blue staining.
Skin sections taken from facial treated area of each mouse are fixed in paraffin and stained with Hematoxylin & Eosin.

## Cc1nc(C(=O)N2CCC(c3ccc(-c4ccccc4C4CC4)cc3CO)C2)ccc1O (stereo not drawn) [KM-023]
[1]
  Dose proportionality of plasma AUC0-8 h: roughly more than dose proportional manner
[1]; po
  BBB crossing / CNS entry: does not cross BBB
  Distribution in CSF: did not distribute well in CSF
  Distribution in skin: distributed well in skin
  Systemic absorption: acceptable systemic absorption
[1]; po, 20 mg/kg
  tmax in plasma: 15 min
[1]; po, 60 mg/kg
  Exposure ratio CSF/plasma of AUC0-8 h: 0.0150-0.0162
  Exposure ratio skin/plasma of AUC0-8 h: 0.437-0.816
  tmax: 0.250
  tmax in CSF: 15 min
  tmax in plasma: 30 min
  tmax in skin: 15 min to 1-hour
[2]
  KM-023 concentrations at 24 h post-dose: above 0.300 ng/mL
  abnormal clinical signs: No abnormal clinical signs were observed
  bioavailability of the KM-023 formulation: 0.2-0.8%
  blood exposure: dose dependent blood exposure
  tmax: 49.8 min
[2]; iv
  Half-time: 3.3 to 4.2 h
  apparent maximum concentration time (tmax): 5 min
[2]; iv, 1 mg/kg
  AUC0-8 h: 314 ng·h/mL
  AUC0-h: 320 ng·h/mL
  AUC0-t/dose (lower part of table, beside AUC0-h): 320 (h * ng/mL)/(mg/kg)
  AUC0-t/dose (upper part of table, beside AUC0-8 h): 314 (h * ng/mL)/(mg/kg)
  C0: 422 ng/mL
  Vz/F: 19.1 L/kg
[2]; iv, 5 mg/kg
  AUC0-8 h: 1300 ng·h/mL
  AUC0-h: 1300 ng·h/mL
  AUC0-t/dose (lower part of table, beside AUC0-h): 261 (h * ng/mL)/(mg/kg)
  AUC0-t/dose (upper part of table, beside AUC0-8 h): 260 (h * ng/mL)/(mg/kg)
  C0: 2340 ng/mL
  Vz/F: 18.2 L/kg
[2]; iv, 10 mg/kg
  AUC0-8 h: 2800 ng·h/mL
  AUC0-h: 2910 ng·h/mL
  AUC0-t/dose (lower part of table, beside AUC0-h): 291 (h * ng/mL)/(mg/kg)
  AUC0-t/dose (upper part of table, beside AUC0-8 h): 280 (h * ng/mL)/(mg/kg)
  C0: 6880 ng/mL
[2]; po
  time of maximum concentration (tmax): 5 to 30 min
[2]; po, 1 mg/kg
  AUC0-24 h: 0.442 ng·h/mL
  AUC0-t/dose: 0.442 kg·ng·h/mL/mg
  AUC0-∞: 0.596 ng·h/mL
[2]; po, 5 mg/kg
  AUC0-24 h: 1.31 ng·h/mL
  AUC0-t/dose: 0.262 kg·ng·h/mL/mg
  AUC0-∞: 2.01 ng·h/mL
[2]; po, 10 mg/kg
  AUC0-24 h: 23.2 ng·h/mL
  AUC0-t: 31.2 ng·h/mL
  AUC0-t/dose: 2.32 kg·ng·h/mL/mg
  AUC0-∞: 23.2 ng·h/mL
  AUC0-∞/dose: 3.12 kg·ng·h/mL/mg
[3]; oral KM-023 1 mg/kg group
  Decrease of number of scratches: 56.25%
[3]; oral KM-023 10 mg/kg group
  Decrease of number of scratches: 68.8%
[3]; oral pretreatment, SLIGRL induced scratch behaviour
  Anti-itching effect: anti-pruritic activity
[4]
  number of scratches observed 30 minutes post induction: decrease the number of scratches
[5]
  Maximal Feasible Dose (MFD): 500 mg/kg

## C=CC[C@@H]1/C=C(\C)C[C@H](C)C[C@H](OC)[C@H]2O[C@@](O)(C(=O)C(=O)N3CCCC[C@H]3C(=O)O[C@H](/C(C)=C/[C@@H]3CC[C@@H](O)[C@H](OC)C3)[C@H](C)[C@@H](O)CC1=O)[C@H](C)C[C@@H]2OC [Tacrolimus, reference compound]
[6]
  Skin pathology (H&E histology: epidermis, inflammation): only slightly improved skin pathology
